# Experimental data reported in patent US8012949B2, “Bisphosphonate compounds and methods with enhanced potency for multiple targets including FPPS, GGPPS, and DPPS” (The Board of Trustees of the University of Illinois, priority 2004, dated 2011).
# Where two headings read alike, the source gives them in different places.
# Key:
# [1] = system: MCF-7 (breast adenocarcinoma); experiment: MCF-7 cell growth inhibition (MTT), incl. FOH/GGOH rescue; format: cell-based, human; settings: for IC50: Homo sapiens, MCF7
# From the text: (§1) Cell Growth Inhibition Assays. […] A broth microdilution method was used to determine IC50 values for growth inhibition by each bisphosphonate. […] NBPs were typically initially dissolved in H2O (0.01 M) while NNBPs were typically dissolved in DMSO (0.01 M).
# GraphPad PRISM® version 4.0 software for windows (GraphPad Software Inc., San Diego, Calif., www.graphpad.com) was used to fit the data to a rectangular hyperbolic function: I=(ImaxC)/(IC50+C);
# For the “rescue” experiments, stock solutions of FOH or GGOH were prepared (in ethanol) and the requisite amounts added to the incubation media to produce a fixed 20 μM concentration.
# [2] = system: SF-268 (central nervous system glioblastoma); experiment: SF-268 cell growth inhibition (MTT); format: cell-based, human; settings: Table 1, experimental; for IC50: Homo sapiens, SF-268, read-out: SF-268 pIC50 (converted)
# From the text: as §1
# (§2) GraphPad PRISM® version 4.0 software for windows (GraphPad Software Inc., San Diego, Calif., www.graphpad.com) was used to fit the data to a rectangular hyperbolic function: I=(ImaxC)/(IC50+C); […]
# [3] = system: NCI-H460 (lung large cell); experiment: NCI-H460 cell growth inhibition (MTT); format: cell-based, human; settings: Table 1, experimental; for IC50: Homo sapiens, NCI-H460, read-out: NCI-H460 pIC50 (converted)
# From the text: as §1, §2
# Vγ2Vδ2 T cells = experiment: γδ T cell activation (TNF-α release and proliferation); format: cell-based, human; settings: Table 2, -log10(value, M); for EC50: Homo sapiens, T-cell, read-out: γδ T Cell Avg pED50 (converted)
# Method: γδ T Cell Assays. Vγ2Vδ2 T cell TNF-α release and proliferation were performed basically as described previously^1. Briefly, to measure bioactivity for Vγ2Vδ2 T cells, the CD4^+ JN.24, CD4^+ HF.2, CD8αα^+ 12G12, or the CD4^−8^− HD.108 Vγ2Vδ2 T cell clones were stimulated with phosphoantigens in the presence of CP.EBV (an EBV transformed B cell line) for CD4^+ clones or Va-2 (a transformed fibroblast) for CD8αα^+ and CD4^−8^− clones. CP.EBV and Va-2 were fixed with 0.05% glutaraldehyde (EM grade, Sigma, Mo.) for use as APCs. […] Curve fitting minima for each experiment (e.g. TNF-α release from JN.24 cells) were determined using the Global Fitting technique, as implemented in Prism 4.0. Curve fitting maxima were optimized for each individual compound without the use of any constraints.
# human DPPS = target: T1, human DPPS (Homo sapiens, UniProt Q5T2R2); experiment: human DPPS enzyme inhibition; format: biochemical; settings: Table 1, experimental; for Ki: read-out: DPPS_pKi (converted)
# T1 construct: made in house
# T1 sequence (Q5T2R2 1-415): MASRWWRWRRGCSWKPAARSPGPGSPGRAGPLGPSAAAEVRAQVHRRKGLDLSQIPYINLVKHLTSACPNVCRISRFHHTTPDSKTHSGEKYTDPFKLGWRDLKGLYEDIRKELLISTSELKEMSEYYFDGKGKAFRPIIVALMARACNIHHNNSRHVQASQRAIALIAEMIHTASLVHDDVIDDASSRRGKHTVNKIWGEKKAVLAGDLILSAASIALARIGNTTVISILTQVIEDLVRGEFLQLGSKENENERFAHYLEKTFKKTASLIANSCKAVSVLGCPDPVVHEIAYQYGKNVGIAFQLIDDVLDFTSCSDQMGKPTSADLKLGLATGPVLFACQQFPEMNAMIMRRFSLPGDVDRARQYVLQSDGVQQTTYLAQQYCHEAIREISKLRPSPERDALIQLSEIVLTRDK
# T1 sequence (Q86YH6 1-399 partner): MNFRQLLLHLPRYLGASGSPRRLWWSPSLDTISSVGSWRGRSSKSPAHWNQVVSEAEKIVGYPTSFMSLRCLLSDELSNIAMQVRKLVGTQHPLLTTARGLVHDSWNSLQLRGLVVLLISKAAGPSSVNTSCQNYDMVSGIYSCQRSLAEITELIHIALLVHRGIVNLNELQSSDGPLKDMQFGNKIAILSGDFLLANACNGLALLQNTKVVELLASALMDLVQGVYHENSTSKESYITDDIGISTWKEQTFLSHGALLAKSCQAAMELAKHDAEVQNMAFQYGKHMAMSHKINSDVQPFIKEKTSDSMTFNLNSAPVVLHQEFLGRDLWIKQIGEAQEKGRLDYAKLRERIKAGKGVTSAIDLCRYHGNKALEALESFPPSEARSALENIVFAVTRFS
# From the text: (§3) To test our polypharmaceutical hypothesis, we expressed three enzymes: human FPPS, GGPPS and DPPS, and tested each for their inhibition by a series of bisphosphonates.
# human FPPS = target: T2, human FPPS (Homo sapiens, UniProt P14324); experiment: human FPPS enzyme inhibition; format: biochemical; settings: for FPPS pKi (M) / Ki: Table 1, experimental; for IC50: Table 9, read-out: H. sapiens FPPS IC50; for Ki: read-out: FPPS pKi (converted)
# T2 construct: made in house
# T2 sequence (P14324 1-419): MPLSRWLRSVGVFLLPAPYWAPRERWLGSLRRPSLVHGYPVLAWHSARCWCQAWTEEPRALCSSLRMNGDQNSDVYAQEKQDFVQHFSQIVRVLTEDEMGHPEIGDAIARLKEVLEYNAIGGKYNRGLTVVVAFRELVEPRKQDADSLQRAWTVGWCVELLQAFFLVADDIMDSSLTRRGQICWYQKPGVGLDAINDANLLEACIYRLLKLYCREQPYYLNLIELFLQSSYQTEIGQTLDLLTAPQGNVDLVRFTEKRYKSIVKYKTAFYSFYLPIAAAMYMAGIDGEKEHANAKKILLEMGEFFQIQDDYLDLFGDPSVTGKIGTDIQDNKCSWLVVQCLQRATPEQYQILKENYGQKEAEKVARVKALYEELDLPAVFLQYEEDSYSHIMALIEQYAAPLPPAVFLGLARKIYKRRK
# From the text: as §3
# [4] = target: T3, human recombinant geranylgeranyl diphosphate synthase (hGGPPS) (Homo sapiens, UniProt O95749); experiment: Human recombinant GGPPS inhibition (radiometric assay); format: biochemical; settings: Table 1, experimental; for Ki: read-out: GGPPS pKi (converted)
# T3 construct: made in house
# T3 sequence (O95749 1-300): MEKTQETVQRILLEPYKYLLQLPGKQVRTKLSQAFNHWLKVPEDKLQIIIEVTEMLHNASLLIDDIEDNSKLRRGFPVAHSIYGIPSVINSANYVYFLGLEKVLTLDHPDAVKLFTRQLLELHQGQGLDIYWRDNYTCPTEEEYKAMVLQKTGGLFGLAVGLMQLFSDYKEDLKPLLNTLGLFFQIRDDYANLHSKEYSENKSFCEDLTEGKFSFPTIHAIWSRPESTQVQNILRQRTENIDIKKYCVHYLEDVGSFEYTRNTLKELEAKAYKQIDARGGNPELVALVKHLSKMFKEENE
# Method: as §3
# Human recombinant GGPPS inhibition. The purification of human recombinant geranylgeranyl diphosphate synthase (hGGPPS) followed the protocol reported previously^2. GGPPS inhibition by bisphosphonates was determined using the radiometric assay reported previously^2 with slight modification. […] IPP and incubated at 37° C. for 20 min. The reaction was terminated by the addition of 75 μL of HCl/MeOH. Following a second 20 min incubation at 37° C. to effectively hydrolyze the allylic pyrophosphates, the reaction mixtures were neutralized by the addition of 75 μL of 6 N NaOH and extracted with 500 μL of hexane. 200 μL of the organic phase was transferred to a scintillation vial for counting. The IC50 values were obtained by fitting the data to the dose-response curve in Origin 6.1 (OriginLab Corp., Northampton, Mass., www.OriginLab.com).
# T. brucei FPPS = T. brucei FPPS inhibition; format: biochemical, Trypanosoma brucei; settings: Table 9
# [5] = Table 1, experimental, read-out: MCF-7 pIC50 (converted)
# [6] = Table 2, -log10(value, M), read-out: MCF-7 Cell pIC50 (converted)
Structure (SMILES),"MCF-7 pIC50 (M) ([1]; Table 1, experimental)","MCF-7 Cell pIC50 (M) ([1]; Table 2, -log10(value, M))",SF-268 pIC50 (M) [2] [M],NCI-H460 pIC50 (M) [3] [M],γδ T Cell Avg pED50 (M) (Vγ2Vδ2 T cells),DPPS pKi (human DPPS),FPPS pKi (M) (human FPPS),also measured
O=P([O-])(O)C(O)(C[n+]1ccccc1)P(=O)(O)O (centres unmarked) [BPH-278],4.1,4.10,4.3,4.1,4.20,7.2,8.6,–
O=P([O-])(O)C(O)(C[n+]1cccc(-c2ccccc2)c1)P(=O)(O)O (centres unmarked) [BPH-300],4.4,–,4.5,4.5,–,6.9,8.3,–
O=P([O-])(O)C(C[n+]1cccc(-c2ccccc2)c1)P(=O)(O)O (centres unmarked) [BPH-472],4.4,4.46,4.3,4.3,4.07,7.1,8.6,GGPPS pKi (M) [4]: 6.6 M
Cc1ccc[n+](CC(P(=O)([O-])O)P(=O)(O)O)c1 (centres unmarked) [BPH-474],4.1,4.42,4.1,4.2,3.85,6.9,8.4,–
O=P([O-])(O)C(C[n+]1cccc(Br)c1)P(=O)(O)O (centres unmarked) [BPH-483],4.0,3.84,4.0,4.1,4.04,6.8,8.5,–
"C[S+](C)CC(O)(P(=O)(O)O)P(=O)(O)O [BPH-527, (2-Hydroxy-2,2-bis-phosphono-ethyl)-dimethyl-sulfonium]",–,3.36,–,–,3.87,–,–,IC50 (T. brucei FPPS): 780 nM; IC50 (human FPPS): 1030 nM
C[P+](C)(C)CC(O)(P(=O)([O-])O)P(=O)(O)O (centres unmarked) [BPH-536],–,3.24,–,–,3.72,–,–,IC50 (T. brucei FPPS): 26100 nM; IC50 (human FPPS): 12100 nM
C[S+](C)CCC(O)(P(=O)([O-])O)P(=O)(O)O (centres unmarked) [BPH-540],–,2.68,–,–,3.59,–,–,IC50 (T. brucei FPPS): 11300 nM; IC50 (human FPPS): 9000 nM
C[As+](C)(C)CC(O)(P(=O)([O-])O)P(=O)(O)O (centres unmarked) [BPH-560],–,2.71,–,–,3.37,–,–,IC50 (T. brucei FPPS): 275000 nM; IC50 (human FPPS): 1130 nM
CCCCCCCCc1ccc[n+](CC(P(=O)([O-])O)P(=O)(O)O)c1 (centres unmarked) [BPH-637],–,–,–,–,–,–,–,"IC50 [1, 5]: 251 nM; IC50 [1, 6]: 219 nM; IC50 [2]: 1260 nM; Ki [4]: 39.8 nM; IC50 [3]: 2000 nM; EC50 (Vγ2Vδ2 T cells): 12600 nM; Ki (human DPPS): 501 nM"
CCCCCCCCCCc1ccc[n+](CC(P(=O)([O-])O)P(=O)(O)O)c1 (centres unmarked) [BPH-638],–,–,–,–,–,–,–,"IC50 [1, 5]: 158 nM; IC50 [1, 6]: 170 nM; IC50 [2]: 200 nM; IC50 [3]: 158 nM; EC50 (Vγ2Vδ2 T cells): 1700 nM; Ki (human DPPS): 501 nM; Ki (human FPPS): 15.8 nM"
O=P([O-])(O)C(O)(C[n+]1cccc(-c2c[nH]cn2)c1)P(=O)(O)O (centres unmarked) [BPH-679],4.4,4.65,4.5,4.3,3.34,6,8.2,GGPPS pKi (M) [4]: 5.0 M
CCCCC[S+](C)CC(P(=O)([O-])O)P(=O)(O)O (centres unmarked) [BPH-684],–,–,–,–,–,–,–,"IC50 [1, 5]: 251000 nM; IC50 [1, 6]: 129000 nM; IC50 [2]: 200000 nM; Ki [4]: 251 nM; IC50 [3]: 158000 nM; EC50 (Vγ2Vδ2 T cells): 126000 nM; Ki (human DPPS): 100 nM; Ki (human FPPS): 10 nM"
CCCCCCCCCCCCCC[S+](C)CC(P(=O)([O-])O)P(=O)(O)O (centres unmarked) [BPH-694],4.9,6.69,5.9,6.0,6.20,6.6,7.1,–
CCCCCCCCc1cc[n+](CC(P(=O)([O-])O)P(=O)(O)O)cc1 (centres unmarked) [BPH-717],–,–,–,–,–,–,–,"IC50 [1, 5]: 501 nM; IC50 [2]: 631 nM; IC50 [3]: 631 nM; Ki (human DPPS): 79.4 nM; Ki (human FPPS): 20 nM"
CCCCCCCOc1ccc[n+](CC(P(=O)([O-])O)P(=O)(O)O)c1 (centres unmarked) [BPH-722],–,–,–,–,–,–,–,"IC50 [1, 5]: 2510 nM; IC50 [1, 6]: 468 nM; IC50 [2]: 1000 nM; Ki [4]: 63.1 nM; IC50 [3]: 501 nM; EC50 (Vγ2Vδ2 T cells): 27500 nM; Ki (human DPPS): 6.31 nM"
CCOCCOCCCc1ccc[n+](CC(P(=O)([O-])O)P(=O)(O)O)c1 (centres unmarked) [BPH-727],3.5,3.62,3.7,3.5,3.77,6.8,8.2,–
CC(C)CCCC(C)CCOc1ccc[n+](CC(P(=O)([O-])O)P(=O)(O)O)c1 (centres unmarked) [BPH-728],4.5,5.59,4.9,4.6,5.28,6.3,6.8,–
